According to DBAASP:
In brackets after ≈: the same amount, converted by molar mass. Several values for one entry are separate records, joined by “and”; a condition that tells them apart may be missing. Identical values can stand only once. Each block holds one compound with its values, some of them ahead of it.

How the values were obtained:
Assay in all cases: ≥ marks a high value that may be exact or a test limit, other limits are often not marked, values filed in µg/mL are converted to µM
[1] = test system: Corynebacterium glutamicum ATCC 13032
[2] = test system: Escherichia coli ATCC 25922
Escherichia coli HB101 = test system: Escherichia coli HB101
[3] = test system: Pseudomonas aeruginosa ATCC 27853
[4] = test system: Staphylococcus aureus ATCC 9144
[5] = test system: Vibrio anguillarum FT1801
Enterococcus faecalis = test system: Enterococcus faecalis
Escherichia coli W3110 = test system: Escherichia coli W3110
[6] = test system: Pseudomonas aeruginosa PAK
Staphylococcus aureus = test system: Staphylococcus aureus
[7] = test system: Streptococcus mutans UA159
[8] = test system: Streptococcus sanguinis NY101
[9] = test system: Streptococcus sobrinus ATCC 33478
[10] = test system: Acinetobacter baumannii ATCC 19606
Bacillus megaterium = test system: Bacillus megaterium
[11] = test system: Candida albicans ATCC 90028
[12] = test system: Enterococcus faecalis ATCC 29212
[13] = test system: Escherichia coli ATCC 35218
Escherichia coli ML-35p = test system: Escherichia coli ML-35p
Helicobacter pylori = test system: Helicobacter pylori
[14] = test system: Klebsiella pneumoniae ATCC 13883
[15] = test system: Legionella feeleii ATCC 35072
[16] = test system: Legionella longbeachae ATCC 33484
[17] = test system: Legionella pneumophila ATCC 33155
[18] = test system: Legionella pneumophila Paris
Listeria ivanovii = test system: Listeria ivanovii
Saccharomyces cerevisiae = test system: Saccharomyces cerevisiae
[19] = test system: Salmonella enterica subsp. enterica serovar Enteritidis
[20] = test system: Staphylococcus aureus ATCC 25923
[21] = test system: Staphylococcus aureus ATCC 43300
[22] = test system: Staphylococcus aureus ATCC BAA-44
[23] = test system: Staphylococcus aureus ST1065
[24] = test system: Streptococcus pyogenes ATCC 19615
[25] = test system: Acinetobacter baumannii ATCC 17978
[26] = test system: Acinetobacter baumannii AYE
Escherichia coli LEC001 = test system: Escherichia coli LEC001
[27] = test system: Escherichia coli NCTC 12923
Escherichia coli = test system: Escherichia coli
Klebsiella pneumoniae M6 = test system: Klebsiella pneumoniae M6
[28] = test system: Klebsiella pneumoniae NCTC 13368
[29] = test system: Pseudomonas aeruginosa NCTC 13437
[30] = test system: Pseudomonas aeruginosa PAO1
[31] = test system: Staphylococcus aureus NCTC 13616
[32] = test system: Staphylococcus aureus USA 300

MIC [1]: 0.8 µM (≈ 3.48 µg/mL) | MIC [2]: 12.5 µM (≈ 54.3 µg/mL) | MIC (Escherichia coli HB101): 6.25 µM (≈ 27.2 µg/mL) | MIC [3]: 6.3 µM (≈ 27.4 µg/mL) | MIC [4]: ≥ 50 µM | MIC [5]: 6.3 µM (≈ 27.4 µg/mL)
SMILES: CC[C@H](C)[C@H](NC(=O)[C@@H]1CCCN1C(=O)[C@H](CCCCN)NC(=O)[C@@H]1CCCN1C(=O)[C@H](CCCN=C(N)N)NC(=O)CNC(=O)[C@@H]1CCCN1C(=O)[C@H](Cc1ccccc1)NC(=O)[C@@H]1CCCN1C(=O)[C@H](CCCN=C(N)N)NC(=O)[C@@H]1CCCN1C(=O)[C@H](CCCN=C(N)N)NC(=O)CNC(=O)[C@@H]1CCCN1C(=O)[C@H](CO)NC(=O)[C@@H]1CCCN1C(=O)[C@H](Cc1c[nH]c2ccccc12)NC(=O)[C@H](CCCN=C(N)N)NC(=O)[C@@H](N)CO)C(=O)N[C@@H](Cc1ccccc1)C(=O)N[C@@H](CCCN=C(N)N)C(=O)N1CCC[C@H]1C(=O)N[C@@H](CCCN=C(N)N)C(=O)N1CCC[C@H]1C(=O)N[C@H]1CSSC[C@@H](C(=O)N[C@@H](CC(=O)O)C(=O)N[C@@H](CCCN=C(N)N)C(=O)N[C@@H](Cc2c[nH]c3ccccc23)C(=O)O)NC(=O)[C@@H]2CCCN2C(=O)[C@@H]2CSSC[C@H](NC(=O)[C@H](CC(N)=O)NC1=O)C(=O)N[C@@H](Cc1ccc(O)cc1)C(=O)N[C@@H](C)C(=O)N1CCC[C@H]1C(=O)N1CCC[C@H]1C(=O)N2 [SRWPSPGRPRPFPGRPKPIFRPRPCNCYAPPCPCDRW]

MIC (Enterococcus faecalis): 25.3 µM (≈ 62.5 µg/mL) | MIC (Escherichia coli W3110): ≥ 50.6 µM | MIC [6]: ≥ 50.6 µM | MIC (Staphylococcus aureus): 50.6 µM (≈ 125 µg/mL) | MIC [7]: 6.48 µM (≈ 16 µg/mL) | MIC [8]: 25.3 µM (≈ 62.5 µg/mL) | MIC [9]: ≥ 101 µM
SMILES: CC[C@H](C)[C@H](NC(=O)[C@H](Cc1ccccc1)NC(=O)[C@H](Cc1cnc[nH]1)NC(=O)[C@H](CCCCN)NC(=O)[C@@H](NC(=O)[C@H](Cc1ccccc1)NC(=O)[C@@H](NC(=O)[C@H](C)NC(=O)[C@H](CO)NC(=O)[C@H](Cc1ccccc1)NC(=O)[C@H](Cc1cnc[nH]1)NC(=O)[C@H](CC(C)C)NC(=O)[C@H](Cc1cnc[nH]1)NC(=O)[C@H](Cc1ccccc1)NC(=O)[C@H](Cc1cnc[nH]1)NC(=O)[C@@H](N)Cc1ccccc1)[C@@H](C)O)[C@@H](C)CC)C(=O)N[C@@H](Cc1cnc[nH]1)C(=O)N[C@@H](CCCN=C(N)N)C(=O)N[C@@H](Cc1ccccc1)C(N)=O [FHFHLHFSATFIKHFIHRF]

MIC [10]: 6 µM (≈ 8.29 µg/mL) | MIC (Bacillus megaterium): 2 µM (≈ 2.76 µg/mL) | MIC [11]: 16 µM and 25 µM | MIC [12]: 11 µM (≈ 15.1 µg/mL) | MIC [2]: 10 µM (≈ 13.8 µg/mL) | MIC [13]: 10 µM (≈ 13.8 µg/mL) | MIC (Escherichia coli ML-35p): 12 µM (≈ 16.6 µg/mL) | MIC (Helicobacter pylori): 17.7 µM (≈ 24.4 µg/mL) | MIC [14]: 12 µM (≈ 16.6 µg/mL) | MIC [15]: 1.56 µM (≈ 2.16 µg/mL) | MIC [16]: 1.56 µM (≈ 2.16 µg/mL) | MIC [17]: 3.12 µM (≈ 4.31 µg/mL) | MIC [18]: 1.56 µM (≈ 2.16 µg/mL) | MIC (Listeria ivanovii): 6 µM (≈ 8.29 µg/mL) | MIC [3]: 31 µM and 50 µM | MIC (Saccharomyces cerevisiae): 8 µM and 12 µM | MIC [19]: 25 µM (≈ 34.5 µg/mL) | MIC [20]: 3 µM (≈ 4.15 µg/mL) | MIC [21]: 6 µM (≈ 8.29 µg/mL) | MIC [22]: 6 µM (≈ 8.29 µg/mL) | MIC [23]: 6 µM (≈ 8.29 µg/mL) | MIC [24]: 6 µM (≈ 8.29 µg/mL)
SMILES: CC[C@H](C)[C@H](NC(=O)CNC(=O)[C@H](CO)NC(=O)[C@H](CC(C)C)NC(=O)[C@@H](N)Cc1ccccc1)C(=O)N[C@H](C(=O)NCC(=O)N[C@@H](CCSC)C(=O)N[C@@H](CC(C)C)C(=O)NCC(=O)N[C@@H](CCCCN)C(=O)N[C@@H](CC(C)C)C(=O)N[C@@H](Cc1ccccc1)C(=O)O)C(C)C [FLSGIVGMLGKLF]

MIC [25]: 1.53 µM (≈ 4 µg/mL) | MIC [26]: 3.06 µM (≈ 8 µg/mL) | MIC (Escherichia coli LEC001): 3.06 µM (≈ 8 µg/mL) | MIC [27]: 3.06 µM (≈ 8 µg/mL) | MIC (Escherichia coli): 12.5 µM (≈ 32.7 µg/mL) | MIC (Klebsiella pneumoniae M6): 12.2 µM (≈ 32 µg/mL) | MIC [28]: 12.2 µM (≈ 32 µg/mL) | MIC [29]: 24.5 µM (≈ 64 µg/mL) | MIC [30]: > 49 µM | MIC [4]: 1.53 µM (≈ 4 µg/mL) | MIC [31]: 1.53 µM (≈ 4 µg/mL) | MIC [32]: 3.06 µM (≈ 8 µg/mL) | MIC (Staphylococcus aureus): 6 µM (≈ 15.7 µg/mL)
SMILES: CC[C@H](C)[C@H](NC(=O)[C@H](CCCCN)NC(=O)[C@H](CC(C)C)NC(=O)[C@H](C)NC(=O)[C@H](C)NC(=O)[C@H](CCCCN)NC(=O)[C@H](CC(C)C)NC(=O)[C@H](C)NC(=O)[C@H](CCCCN)NC(=O)CNC(=O)[C@H](CC(C)C)NC(=O)[C@H](Cc1ccccc1)NC(=O)[C@H](CO)NC(=O)CNC(=O)[C@H](Cc1ccccc1)NC(=O)CN)C(=O)NCC(=O)N[C@@H](C)C(=O)N[C@@H](CC(N)=O)C(=O)N[C@H](C(=O)N[C@@H](CC(C)C)C(=O)NCC(=O)NCC(=O)N[C@@H](C)C(=O)N1CCC[C@H]1C(=O)N[C@@H](CCC(N)=O)C(=O)N[C@@H](CCC(N)=O)C(=O)O)C(C)C [GFGSFLGKALKAALKIGANVLGGAPQQ]
